Experimental data as given in patent US9827229B2, “Small molecule securinine and norsecurinine analogs and their use in cancers, inflammatory diseases and infections” (INVENIO THERAPEUTICS INC., priority 2013, dated 2017).
Like-named read-outs stand apart in the source and are kept apart here.

What was measured:
[1] = tested on: HL60 cells; assay: Differentiation of HL60 cells (Dif50); format: cell-based, human; details: for EC50: no unit in head or cell (other cells of the column print uM)
Source text: The tested compounds and their respective results are produced in Table 1. Those skilled in the art will appreciate that combining the securinine and/or norsecurinine analogs with other differentiation inducing agents, such as all-trans retinoic acid, cytarabine and/or an anthracycline, would be of further benefit. Those skilled in the art will appreciate that inducing differentiation may further reduce oxidative damage due to lower presence of radical inducing enzymes (see, e.g., Yamada et al. J Biol Chem 259(5)3021-3025 (1984) and Weil et al., PNAS 84:2057-2061 (1987)).
(§1) The analogs were then tested and evaluated on the ability to affect differentiation and growth of HL60 cells.

[2] = tested on: HL60 cells; assay: Growth of HL60 cells (IC50); format: cell-based, human
Protocol: as §1

[3] = Homo sapiens, HL-60, HL-60 cells, differentiation, read-out: HL-60, Dif50
[4] = Homo sapiens, HL-60, HL-60 cells, growth, no unit in head or cell (other cells of the column print uM), read-out: HL-60, IC50
[5] = Homo sapiens, HL-60, read-out: HL-60, Dif50, HL-60 cells, differentiation

For `O=C1C=C2C=C[C@@H]3C[C@@]2(O1)[C@H]1CCCCN31` [INVS-MG-94-aq], the EC50 ([1]; read-out: HL-60, Dif50, HL-60 cells, differentiation) was > 30 µM.
In the case of `O=C1C=C2CC(S(=O)Oc3ccccc3)[C@@H]3C[C@@]2(O1)[C@H]1CCCCN31` (some centres unmarked) [Sec-19], the EC50 [1, 3] is reported as 20 to 30 µM.
For `COC(OC)[C@H]1CC[C@H]2N1[C@@H]1C=C(C#Cc3ccc(CO)cc3)C3=CC(=O)O[C@@]32C1` [INVS-MG-224A], the IC50 [2, 4] was 0.156 to 0.31 µM.
With `COC(OC)[C@H]1CC[C@H]2N1[C@@H]1C=CC3=CC(=O)O[C@@]32C1` [INVS-MG-99-IVD-I] the IC50 ([2]; read-out: HL-60, IC50, HL-60 cells, growth) was > 5 µM.
Work on `O=C1CC2(SCC(F)(F)F)CC(SCC(F)(F)F)[C@@H]3C[C@@]2(O1)[C@H]1CCCCN31` (some centres unmarked) [INVS-MG-5A] yielded an EC50 [1, 5] of 5 to 7.5 µM.
In the case of `COC(OC)C1CCC2N1C1C=C(C#CCO)C3=CC(=O)OC32C1` (centres unmarked) [INV-SZ-136-1], the IC50 [2, 4] is reported as 0.15 to 0.31 µM.
`O=C1C=C2C(C#Cc3cc(C(F)(F)F)cc(C(F)(F)F)c3)=C[C@@H]3C[C@@]2(O1)[C@H]1CCCCN31` [INVS-MG-149B′] gave an IC50 [2, 4] of 1.25 to 2.5 µM.
`COC(OC)C1CCC2N1C1C=C(C#Cc3ccc(N(C)C)cc3)C3=CC(=O)OC32C1` (centres unmarked) [INV-SZ-117-3] showed an IC50 [2, 4] of 0.03 to 0.07 µM.
In the case of `COC(OC)[C@H]1CC[C@H]2N1[C@@H]1C=CC3=CC(=O)O[C@@]32C1` [INVS-MG-99-IVD], the IC50 ([2]; Homo sapiens, HL-60, read-out: HL-60, IC50, HL-60 cells, growth) is reported as < 5 µM.
With `O=C1C=C2C(/C=C(\C#Cc3cc(C(F)(F)F)cc(C(F)(F)F)c3)c3cc(C(F)(F)F)cc(C(F)(F)F)c3)=C[C@@H]3C[C@@]2(O1)[C@H]1CCCCN31` [INVS-MG-149B] the IC50 [2, 4] was 1.25 to 2.5 µM.
In the case of `C#CC1=C[C@@H]2C[C@@]3(OC(=O)C=C13)[C@H]1CCCCN21` [INVS-MG-207-II], the EC50 [1, 3] is reported as > 0.07 µM.
In the case of `COc1ccc2cc(C#CC3=C[C@@H]4C[C@@]5(OC(=O)C=C35)[C@H]3CCCCN43)ccc2c1` [INVS-MG-157-III], the IC50 [2, 4] is reported as 0.07 to 0.156 µM.
`CO[C@H]1CC2=CC(=O)O[C@@]23C[C@@H]1N1CCCC[C@@H]13` [INVS-MG-97-IIB] was tested, and the EC50 [1, 5] was > 30 µM.
Work on `O=C1C=C2CC(SCCSC3CC4=CC(=O)O[C@]45C[C@H]3N3CCCC[C@H]35)[C@@H]3C[C@@]2(O1)[C@H]1CCCCN31` (some centres unmarked) [INVS-MG-7C] yielded an EC50 [1, 3] of 10 to 15 µM.
In the case of `O=C1C=C2C[C@H](SCC(F)(F)F)[C@@H]3C[C@@]2(O1)[C@H]1CCCCN31` [INVS-MG-5B], the EC50 [1, 3] is reported as > 30 µM.
In the case of `OC1CC2CC[C@@H]3C[C@@]2(O1)[C@H]1CCCCN31` (some centres unmarked) [Sec-16], the EC50 [1, 3] is reported as 20 to 30 µM.
In the case of `C=CCOCC#CC1=C[C@@H]2C[C@@]3(OC(=O)C=C13)[C@H]1CCCCN21` [INVS-MG-159A], the “HL-60, Dif50/IC50 column: second value of 'x/y at 10 uM' (growth)” value ([2]; HL-60 cells) is reported as 20/20 at 10 uM and the “HL-60, Dif50/IC50 column: first value of 'x/y at 10 uM' (differentiation)” value ([1]; HL-60 cells) is reported as 20/20 at 10 uM.
For `N#CCCCC#C/C(=C\C1=C[C@@H]2C[C@@]3(OC(=O)C=C13)[C@H]1CCCCN21)CCCC#N` [INVS-MG-125-IIB], the “HL-60, Dif50/IC50 column: second value of 'x/y at 10 uM' (growth)” value ([2]; HL-60 cells) was 35 and the “HL-60, Dif50/IC50 column: first value of 'x/y at 10 uM' (differentiation)” value ([1]; HL-60 cells) was 40.
For `O=C1C=C2C[C@H](NCCc3cc4ccccc4[nH]3)[C@@H]3C[C@@]2(O1)[C@H]1CCCCN31` [INVS-MG-98B], the EC50 [1, 3] was 10 to 15 µM.
`CCCCCCCCC#CC1=C[C@@H]2C[C@@]3(OC(=O)C=C13)[C@H]1CCCCN21` [INVS-MG-118-IIB] showed an IC50 [2, 4] of 2.5 to 5 µM.
In the case of `O=C1C=C2C(I)=CC3CC2(O1)C1CCC(CO)N31` (centres unmarked) [INV-SZ-140-1], the IC50 [2, 4] is reported as 0.07 to 0.15 µM.
`COC(OC)C1CCC2N1C1C=C(C#CCNC(=O)CCl)C3=CC(=O)OC32C1` (centres unmarked) [INV-SZ-141-1] gave an IC50 [2, 4] of 1.25 to 2.5 µM.
`Oc1ccccc1CSC1CC2=CC(O)O[C@@]23C[C@@H]1N1CCCC[C@@H]13` (some centres unmarked) [Sec-4] was tested, and the EC50 [1, 3] was 15 to 20 µM.
Compound `COC(OC)C1CCC2N1C1C=C(C#Cc3ccccc3)C3=CC(=O)OC32C1` (centres unmarked) [INV-SZ-123-2] has an IC50 [2, 4] of 0.37 to 0.75 µM.
For `CCCNC1CC2=CC(=O)O[C@@]23C[C@@H]1N1CCCC[C@@H]13` (some centres unmarked) [INVS-MG-44], the EC50 [1, 3] was 15 to 20 µM.
Compound `C#CC1=C[C@@H]2C[C@@]3(OC(=O)C=C13)[C@H]1CCCCN21` [INVS-MG-207A] has an IC50 [2, 4] of 0.07 to 0.156 µM.
In the case of `O=C1C=C2C(C#Cc3cc4ccccc4c4ccccc34)=C[C@@H]3C[C@@]2(O1)[C@H]1CCCCN31` [INVS-MG-158-VI], the IC50 ([2]; Homo sapiens, HL-60, read-out: HL-60, IC50, HL-60 cells, growth, no unit in head or cell (other cells of the column print uM)) is reported as 0.156 to 0.31 µM.
Work on `COC(OC)C1CCC2N1C1C=C(C#Cc3cccnc3)C3=CC(=O)OC32C1` (centres unmarked) [INV-SZ-114-1] yielded an IC50 [2, 4] of 0.07 to 0.15 µM.
For `O=C1C=C2C3C=CCC2(O1)C1CCC=CN1O3` (centres unmarked) [INV-SZ-125-3], the IC50 [2, 4] was < 5 µM.
Compound `O=C1C=C2C(C#Cc3ccc(CO)cc3)=CC3CC2(O1)C1CCCCN31` (centres unmarked) [INV-SZ-120-1] has an IC50 [2, 4] of 0.07 to 0.15 µM.
